In article PMC6950057, “Toxicity, Pharmacokinetics, and Gut Microbiome of Oral Administration of Sesterterpene MHO7 Derived from a Marine Fungus” (Marine Drugs, 2019):
Where two headings read alike, the source gives them in different places.

Assays:
[1] = Log P by shaking flask method (n-octanol/water); type: physicochemical
Procedure: An HPLC system (Shimadzu, Japan) was equipped with a LC-20AD binary pump system, a SIL-20AD auto sampler, a CBM-20A system controller, and a CTO-20A oven. Separation of MHO7 and IS from endogenous substances was carried out on an Agilent Zorbax XDB C18 column (5 μm, 250 × 4.6 mm, Agilent, Pal Alto, CA, USA), which was kept at 30 °C. The mobile phase was composed of 30% phase A (water) and 70% phase B (acetonitrile) with a flow rate of 1 mL·min^−1. The inject volume of the sample solution was 10 μL.
The phases of distilled water and n-octanol were saturated with each other by shaking for 48 h with 250 rpm in a shaking water bath prior to use. Solutions of MHO7 was prepared in concentration of 10 mM·L^−1 in n-octanol. Accurately measured amounts of the two solvents with necessary quantity of MHO7 were placed in a 5.0 mL centrifuge tube; then, the mixture was carried out at 250 rpm and designated temperature in the shaking water bath for 48 h to afford complete phase separation. The samples of both phases were collected at 0, 4, 8, 12, 24, 30, 36 and 48 h, diluted with methanol (1:1, V) and determined by HPLC with the detection wavelength of 234 nm. Each set of solvent systems for experimental logP/D value was the mean of the three determinations.

[2] = Stability in simulated gastric fluid (SGF); type: in vitro ADME; conditions: for percentage concentration remaining in SGF: at 8 h
Procedure: (§1) SGF was prepared with modifications according to Lee et al. (2012) by mixing 100 mL of distilled water with a pH value set to 2.0 with hydrochloric acid and 1 g pepsin solution (800–2000 U/mg of protein). SIF was produced according to USP specifications (Test Solutions, United States Pharmacopeia 35, NF 30, 2012). Monobasic potassium phosphate (0.68 g) was dissolved in 25 mL of water. Then, 7.7 mL of 0.2 M NaOH was added to adjust the pH to 6.8. To this, 1 g of pancreatin was added and shaken gently until dissolved and the volume adjusted to 100 mL with water. Pancreatin was added after adjusting the pH of the solution to 6.8 to avoid precipitation of the enzyme.
(§2) Aliquots (199 µL) of SGF and SIF were placed in 1.5 mL microcentrifuge tubes and incubated at 37 °C for 10 min in a water bath, respectively. Different concentrations of MHO7 (1 µL) were added to each of the above microcentrifuge tubes to start the reaction with being incubated at 37 °C at 250 rpm in a shaking water bath. The reaction was stopped by adding ice ACN (800 µL) to each tube at intervals of 0, 0.5, 1, 2, 4, 6, and 8 h. The samples were vortexed for 15 min and centrifuged at 4 °C and 15,000 rpm for 15 min. After centrifuging the supernatant layer was taken directly for LC-MS analysis. Each experiment was carried out in triplicate, and average values were plotted. QC samples were prepared in the same way of inactivating pepsin in SGF incubation system at the concentrations of 1, 0.1 and 0.01 μM·L^−1 for HQC, MQC and LQC, respectively.

KM mice = experiment: Acute toxicity / maximum tolerated dose, oral; type: in vivo; design: Body weight / Heart weight / Liver weight / spleen weight / lung weight / kidney weight / Reproductive organs weight / brain weight: unit not given here; conditions: for Body weight / Heart weight / Liver weight / Reproductive organs weight / brain weight / kidney weight / lung weight / spleen weight: 2400 mg/kg
Procedure: (§3) Male and female KM mice of 8–10 weeks of age (20–22 g) were used in acute toxicity experiment and only female KM mice were subjected in other animal experiments. All mice were purchased from the Vital River Laboratory Animal Technology Co. Ltd. (Beijing, China). The mice were bred in a standard environment (23 ± 1 °C; humidity of 60 ± 5%) with a 12-h light/dark cycle and food and water were provided ad libitum. All animal protocols were approved by the Animal Care and Use Committee of Wuhan University Center for Animal Experiment ABSL-Ⅲ Laboratory and complied with the Guide for the Care and Use of Laboratory Animals (NIH publication, 8th edition, 2011). In total, 130 mice were used for in vivo studies under the ethical approved protocols.
(§4) Male and female KM mice of 8–10 weeks of age (20–22 g) were used in acute toxicity experiment. After animals were acclimatized for 1 week, 20 female and 20 male mice were randomly and evenly divided into four groups. The mice of acute toxicity experiment were fasted overnight and administered by the oral dose of MHO7 (2400 mg·kg^−1, bw) diluted in corn oil the next morning. Then, mice were placed with free access to chow and water. […] The number surviving and their behaviors was also recorded every day.

[3] = Acute toxicity / maximum tolerated dose, oral; type: in vivo, mice; design: Body weight / Heart weight / Liver weight / spleen weight / lung weight / kidney weight / Reproductive organs weight / brain weight: unit not given here; conditions: both sexes, mouse, in vivo, 2400 mg·kg^−1; oral administration, male and female KM mice; read-out: maximum tolerable dose (MTD)
Procedure: as §3, §4

[4] = Stability in simulated intestinal fluid (SIF); type: in vitro ADME; conditions: for percentage concentration remaining in SIF: at 8 h
Procedure: as §1, §2

[5] = pH 7, 37 °C, octanol/ddH2O, read-out: Log P/D Value O/W (pH 7.0)
[6] = MHO7 added at 0.05 mM·L^−1, 37 °C
[7] = initial addition 0.5 mM·L^−1, 37 °C
[8] = under the concentration of 5 mM·L^−1

In the case of `CC(C)=C/C=C/[C@H](C)[C@H]1CC[C@]2(C)C[C@@H]3C(C)=CC(=O)[C@H]3/C(C=O)=C\C[C@@H]12` [MHO7, 6-epi-ophiobolin G], the logP at 4 h ([1]; 25 °C, read-out: Log P Value) is reported as 1.23 ± 0.02, the logP at 8 h ([1]; 25 °C, read-out: Log P Value) is reported as 1.22 ± 0.04 and the logP at 12 h ([1]; 25 °C, read-out: Log P Value) is reported as 1.23 ± 0.03. The logP at 24 h ([1]; 25 °C, read-out: Log P Value) was 1.23 ± 0.02, the logP at 30 h ([1]; 25 °C, read-out: Log P Value) was 1.27 ± 0.15 and the logP at 36 h ([1]; 25 °C, read-out: Log P Value) was 1.27 ± 0.03. For the same molecule, the logP at 48 h ([1]; 25 °C, read-out: Log P Value) was 1.29 ± 0.05, the logP at 4 h [1, 5] was 2.55 ± 0.01 and the logP at 8 h [1, 5] was 2.51 ± 0.04. For the same molecule, the logP at 12 h [1, 5] was 2.48 ± 0.02, the logP at 24 h [1, 5] was 2.49 ± 0.02 and the logP at 30 h [1, 5] was 2.47 ± 0.01. The logP at 36 h [1, 5] was 2.49 ± 0.03, the logP at 48 h [1, 5] was 2.48 ± 0.03 and the “percentage concentration remaining in SGF” value [2, 6] was 76.19 ± 0.99%. The “percentage concentration remaining in SGF” value [2, 7] was 80.2 ± 3.15%, the “stability in SGF” value [2, 8] was “stable” and the Body weight (KM mice; female mice) was 33.30±2.1. The Heart weight (KM mice; female mice) was 0.15±0.01, the Liver weight (KM mice; female mice) was 1.49±0.09 and the Reproductive organs weight (KM mice; female mice) was 0.21±0.05. It also gave a brain weight (KM mice; female mice) of 0.40±0.07, a kidney weight (KM mice; female mice) of 0.46±0.02 and a lung weight (KM mice; female mice) of 0.22±0.02. For the same molecule, the spleen weight (KM mice; female mice) was 0.13±0.05, the Body weight (KM mice; male mice) was 38.75±2.96 and the Heart weight (KM mice; male mice) was 0.18±0.02. It also gave a Liver weight (KM mice; male mice) of 2.39±0.38, a Reproductive organs weight (KM mice; male mice) of 0.19±0.02 and a brain weight (KM mice; male mice) of 0.42±0.06. The kidney weight (KM mice; male mice) was 0.58±0.06, the lung weight (KM mice; male mice) was 0.22±0.03 and the spleen weight (KM mice; male mice) was 0.15±0.03. The “weight ranges (Table S5), treatment vs control group” value (KM mice; oral 2400 mg·kg^−1) was “no significant difference”, the observed toxicity (KM mice; oral 2400 mg·kg^−1, 14 days observation) was “No obvious toxicity was observed” and the “body weight, MHO7 group vs control group” value (KM mice; oral 2400 mg·kg^−1, after seven days) was “no significant difference”. The diarrhea (KM mice; oral 2400 mg·kg^−1, female and male mice, returned to normal within two days) was “a small number of animals with diarrhea was found during the first day”, the tolerability (KM mice; oral administration 2400 mg·kg^−1) was “well-tolerated” and the MTD at 2 weeks [3] was 2400 mg/kg. The “percentage concentration remaining in SIF” value [4, 6] was 94.83 ± 1.14%, the “percentage concentration remaining in SIF” value [4, 7] was 89.74 ± 0.86% and the “stability in SIF” value [4, 8] was “stable”.
